Data taken from a compilation of properties of binary mixtures (doi:10.1021/acs.jpcb.7b01654).

Experiment: xn = mol fraction of the nth substance listed
Conditions: 100 kPa

## CC[n+]1ccn(C)c1.O=S(=O)([N-]S(=O)(=O)C(F)(F)F)C(F)(F)F + CCCCCCCCCCCC[n+]1ccn(C)c1.O=S(=O)([N-]S(=O)(=O)C(F)(F)F)C(F)(F)F
283 K, x2 = 0
  viscosity: 56.8 mPa·s
288 K, x2 = 0
  viscosity: 44.6 mPa·s
298 K, x2 = 0
  viscosity: 29.7 mPa·s
303 K, x2 = 0
  viscosity: 24.8 mPa·s
308 K, x2 = 0
  viscosity: 21 mPa·s
318 K, x2 = 0
  viscosity: 15.57 mPa·s
323 K, x2 = 0
  viscosity: 13.28 mPa·s

## CCCCCCCCCCCC[n+]1ccn(C)c1.O=S(=O)([N-]S(=O)(=O)C(F)(F)F)C(F)(F)F + CC[n+]1ccn(C)c1.O=S(=O)([N-]S(=O)(=O)C(F)(F)F)C(F)(F)F
293 K, x1 = 0.01
  viscosity: 36.2 mPa·s
293 K, x1 = 0.04
  viscosity: 37.9 mPa·s
293 K, x1 = 0.08
  viscosity: 41.4 mPa·s
293 K, x1 = 0.16
  viscosity: 47.6 mPa·s
293 K, x1 = 0.24
  viscosity: 57.4 mPa·s
293 K, x1 = 0.32
  viscosity: 69.1 mPa·s
293 K, x1 = 0.43
  viscosity: 85.1 mPa·s
293 K, x1 = 0.52
  viscosity: 94.7 mPa·s
293 K, x1 = 0.63
  viscosity: 116 mPa·s
293 K, x1 = 0.74
  viscosity: 137 mPa·s
293 K, x1 = 0.87
  viscosity: 158 mPa·s
293 K, x1 = 0.92
  viscosity: 182 mPa·s
293 K, x1 = 1
  viscosity: 193 mPa·s
293 K, x2 = 0.01
  viscosity: 199 mPa·s
298 K, x1 = 0.01
  viscosity: 29.4 mPa·s
298 K, x1 = 0.04
  viscosity: 30.8 mPa·s
298 K, x1 = 0.08
  viscosity: 33.5 mPa·s
298 K, x1 = 0.24
  viscosity: 45.7 mPa·s
298 K, x1 = 0.32
  viscosity: 54.2 mPa·s
298 K, x1 = 0.43
  viscosity: 66 mPa·s
298 K, x1 = 0.52
  viscosity: 73.2 mPa·s
298 K, x1 = 0.63
  viscosity: 88.7 mPa·s
298 K, x1 = 0.74
  viscosity: 104 mPa·s
298 K, x1 = 0.87
  viscosity: 119 mPa·s
298 K, x1 = 0.92
  viscosity: 135 mPa·s
298 K, x1 = 0.96
  viscosity: 149 mPa·s
298 K, x1 = 1
  viscosity: 143 mPa·s
298 K, x2 = 0.01
  viscosity: 149 mPa·s
303 K, x1 = 0.01
  viscosity: 24.3 mPa·s
303 K, x1 = 0.04
  viscosity: 25.5 mPa·s
303 K, x1 = 0.08
  viscosity: 27.6 mPa·s
303 K, x1 = 0.32
  viscosity: 43.6 mPa·s
303 K, x1 = 0.43
  viscosity: 52.4 mPa·s
303 K, x1 = 0.52
  viscosity: 57.7 mPa·s
303 K, x1 = 0.63
  viscosity: 69.3 mPa·s
303 K, x1 = 0.74
  viscosity: 80.6 mPa·s
303 K, x1 = 0.87
  viscosity: 91.7 mPa·s
303 K, x1 = 0.92
  viscosity: 102 mPa·s
303 K, x1 = 0.96
  viscosity: 114 mPa·s
303 K, x2 = 0.01
  viscosity: 113 mPa·s
308 K, x1 = 0.01
  viscosity: 20.5 mPa·s
308 K, x1 = 0.04
  viscosity: 21.5 mPa·s
308 K, x1 = 0.08
  viscosity: 23.2 mPa·s
308 K, x1 = 0.16
  viscosity: 26.1 mPa·s
308 K, x1 = 0.24
  viscosity: 30.7 mPa·s
308 K, x1 = 0.32
  viscosity: 35.6 mPa·s
308 K, x1 = 0.43
  viscosity: 42.4 mPa·s
308 K, x1 = 0.52
  viscosity: 46.6 mPa·s
308 K, x1 = 0.63
  viscosity: 55.3 mPa·s
308 K, x1 = 0.87
  viscosity: 71.9 mPa·s
308 K, x1 = 0.92
  viscosity: 79 mPa·s
308 K, x1 = 1
  viscosity: 84 mPa·s
308 K, x2 = 0.01
  viscosity: 88.4 mPa·s
313 K, x1 = 0.01
  viscosity: 17.6 mPa·s
313 K, x1 = 0.04
  viscosity: 18.4 mPa·s
313 K, x1 = 0.08
  viscosity: 19.8 mPa·s
313 K, x1 = 0.16
  viscosity: 22.1 mPa·s
313 K, x1 = 0.24
  viscosity: 25.7 mPa·s
313 K, x1 = 0.32
  viscosity: 29.6 mPa·s
313 K, x1 = 0.43
  viscosity: 34.8 mPa·s
313 K, x1 = 0.52
  viscosity: 38.3 mPa·s
313 K, x1 = 0.63
  viscosity: 44.8 mPa·s
313 K, x1 = 0.74
  viscosity: 51.3 mPa·s
313 K, x1 = 0.87
  viscosity: 57.4 mPa·s
313 K, x1 = 0.92
  viscosity: 62.1 mPa·s
313 K, x1 = 1
  viscosity: 66.2 mPa·s
313 K, x2 = 0.01
  viscosity: 70 mPa·s
318 K, x1 = 0.01
  viscosity: 15.26 mPa·s
318 K, x1 = 0.04
  viscosity: 15.96 mPa·s
318 K, x1 = 0.08
  viscosity: 17 mPa·s
318 K, x1 = 0.16
  viscosity: 19 mPa·s
318 K, x1 = 0.24
  viscosity: 21.9 mPa·s
318 K, x1 = 0.32
  viscosity: 24.8 mPa·s
318 K, x1 = 0.43
  viscosity: 28.9 mPa·s
318 K, x1 = 0.52
  viscosity: 31.7 mPa·s
318 K, x1 = 0.63
  viscosity: 36.9 mPa·s
318 K, x1 = 0.74
  viscosity: 42 mPa·s
318 K, x1 = 0.87
  viscosity: 46.5 mPa·s
318 K, x1 = 0.92
  viscosity: 49.8 mPa·s
318 K, x1 = 0.96
  viscosity: 56.2 mPa·s
318 K, x1 = 1
  viscosity: 53 mPa·s
318 K, x2 = 0.01
  viscosity: 56.3 mPa·s
323 K, x1 = 0.01
  viscosity: 13.19 mPa·s
323 K, x1 = 0.04
  viscosity: 13.82 mPa·s
323 K, x1 = 0.16
  viscosity: 16 mPa·s
323 K, x1 = 0.24
  viscosity: 18.6 mPa·s
323 K, x1 = 0.43
  viscosity: 23.8 mPa·s
323 K, x1 = 0.52
  viscosity: 26.1 mPa·s
323 K, x1 = 0.63
  viscosity: 30.3 mPa·s
323 K, x1 = 0.87
  viscosity: 37.4 mPa·s
323 K, x1 = 0.92
  viscosity: 40.2 mPa·s
323 K, x1 = 0.96
  viscosity: 45.5 mPa·s
323 K, x1 = 1
  viscosity: 42.65 mPa·s
328 K, x1 = 0.01
  viscosity: 11.69 mPa·s
328 K, x1 = 0.08
  viscosity: 12.89 mPa·s
328 K, x1 = 0.16
  viscosity: 14.06 mPa·s
328 K, x1 = 0.24
  viscosity: 16.17 mPa·s
328 K, x1 = 0.32
  viscosity: 18 mPa·s
328 K, x1 = 0.43
  viscosity: 20.4 mPa·s
328 K, x1 = 0.52
  viscosity: 22.2 mPa·s
328 K, x1 = 0.63
  viscosity: 25.5 mPa·s
328 K, x1 = 0.74
  viscosity: 28.7 mPa·s
328 K, x1 = 0.87
  viscosity: 31.1 mPa·s
328 K, x1 = 0.92
  viscosity: 33 mPa·s
328 K, x1 = 0.96
  viscosity: 37.4 mPa·s
328 K, x1 = 1
  viscosity: 34.9 mPa·s
328 K, x2 = 0.01
  viscosity: 37.5 mPa·s
333 K, x1 = 0.01
  viscosity: 10.4 mPa·s
333 K, x1 = 0.04
  viscosity: 10.81 mPa·s
333 K, x1 = 0.08
  viscosity: 11.37 mPa·s
333 K, x1 = 0.24
  viscosity: 14.13 mPa·s
333 K, x1 = 0.32
  viscosity: 15.5 mPa·s
333 K, x1 = 0.43
  viscosity: 17.6 mPa·s
333 K, x1 = 0.52
  viscosity: 19.1 mPa·s
333 K, x1 = 0.63
  viscosity: 21.7 mPa·s
333 K, x1 = 0.74
  viscosity: 24.1 mPa·s
333 K, x1 = 0.87
  viscosity: 26.1 mPa·s
333 K, x1 = 0.96
  viscosity: 31.2 mPa·s
333 K, x1 = 1
  viscosity: 28.87 mPa·s
333 K, x2 = 0.01
  viscosity: 31.3 mPa·s
